In PMC12409821, “Synthesis and Characterization of Co(II), Cu(II), and Ni(II) Complexes of 2,2′‐Bipyridine‐4,4′‐Dicarboxamide Ligands: Antibacterial Evaluation Against Resistant Bacteria and Enzyme Inhibition” (ChemistryOpen, 2025):

How the values were obtained:
pancreatic lipase = biological target: T1, pancreatic lipase (Homo sapiens, UniProt P16233); assay: In vitro lipase inhibition assay; format: biochemical
T1 sequence (P16233 17-465): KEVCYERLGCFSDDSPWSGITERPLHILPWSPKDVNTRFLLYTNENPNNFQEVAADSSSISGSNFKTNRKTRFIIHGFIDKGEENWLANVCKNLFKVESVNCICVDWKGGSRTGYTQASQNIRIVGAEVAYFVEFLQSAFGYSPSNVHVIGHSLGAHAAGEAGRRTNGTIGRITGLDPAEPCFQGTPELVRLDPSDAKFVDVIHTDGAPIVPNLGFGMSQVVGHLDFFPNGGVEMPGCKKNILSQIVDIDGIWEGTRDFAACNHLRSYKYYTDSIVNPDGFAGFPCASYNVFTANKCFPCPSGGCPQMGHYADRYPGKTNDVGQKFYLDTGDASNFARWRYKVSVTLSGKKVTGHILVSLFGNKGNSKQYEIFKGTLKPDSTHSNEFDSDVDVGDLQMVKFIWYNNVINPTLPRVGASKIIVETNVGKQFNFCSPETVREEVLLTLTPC
Experimental: (§1) In cholinesterase activity measurements, the method reported by Karagecili and coworkers was used with minor modifications.^[ [23] ^] Here, acetylchoiniodate was used as a substrate for both enzymes. Lipase enzyme activity measurement was performed according to the method reported by Bulut.^[ [24] ^] In inhibition studies, measurements were made at at least five different concentrations of the molecules synthesized. %activity values were calculated by accepting enzyme activity measurements without inhibitor as 100%. Then, molecule concentrations were plotted against Activity% values.

[1] = biological target: butyrylcholinesterase (BChE) (Homo sapiens, UniProt P06276); assay: biochemical; details: at least five concentrations
Experimental: as §1

[2] = biological target: acetylcholinesterase (AChE) (Homo sapiens, UniProt P22303); assay: biochemical; details: at least five concentrations
Experimental: as §1

Chain of acetylcholinesterase (AChE) (P22303 32-614, species assumed): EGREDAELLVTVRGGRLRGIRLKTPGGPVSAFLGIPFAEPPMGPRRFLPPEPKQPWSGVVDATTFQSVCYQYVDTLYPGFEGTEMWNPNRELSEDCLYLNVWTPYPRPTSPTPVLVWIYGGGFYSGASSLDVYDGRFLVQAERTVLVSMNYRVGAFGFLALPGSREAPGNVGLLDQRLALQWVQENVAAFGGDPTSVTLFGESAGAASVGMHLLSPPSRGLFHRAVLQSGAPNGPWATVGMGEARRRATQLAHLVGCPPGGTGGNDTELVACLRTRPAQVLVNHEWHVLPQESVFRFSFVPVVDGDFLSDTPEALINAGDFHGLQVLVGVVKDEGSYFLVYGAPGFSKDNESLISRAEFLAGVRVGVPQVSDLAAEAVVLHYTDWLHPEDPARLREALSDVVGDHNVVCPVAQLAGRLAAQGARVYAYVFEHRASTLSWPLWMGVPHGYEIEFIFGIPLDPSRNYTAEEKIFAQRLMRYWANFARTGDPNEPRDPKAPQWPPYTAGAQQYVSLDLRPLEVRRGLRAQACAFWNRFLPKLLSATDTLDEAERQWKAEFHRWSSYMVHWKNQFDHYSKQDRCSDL
Chain of butyrylcholinesterase (BChE) (P06276 29-602, species assumed): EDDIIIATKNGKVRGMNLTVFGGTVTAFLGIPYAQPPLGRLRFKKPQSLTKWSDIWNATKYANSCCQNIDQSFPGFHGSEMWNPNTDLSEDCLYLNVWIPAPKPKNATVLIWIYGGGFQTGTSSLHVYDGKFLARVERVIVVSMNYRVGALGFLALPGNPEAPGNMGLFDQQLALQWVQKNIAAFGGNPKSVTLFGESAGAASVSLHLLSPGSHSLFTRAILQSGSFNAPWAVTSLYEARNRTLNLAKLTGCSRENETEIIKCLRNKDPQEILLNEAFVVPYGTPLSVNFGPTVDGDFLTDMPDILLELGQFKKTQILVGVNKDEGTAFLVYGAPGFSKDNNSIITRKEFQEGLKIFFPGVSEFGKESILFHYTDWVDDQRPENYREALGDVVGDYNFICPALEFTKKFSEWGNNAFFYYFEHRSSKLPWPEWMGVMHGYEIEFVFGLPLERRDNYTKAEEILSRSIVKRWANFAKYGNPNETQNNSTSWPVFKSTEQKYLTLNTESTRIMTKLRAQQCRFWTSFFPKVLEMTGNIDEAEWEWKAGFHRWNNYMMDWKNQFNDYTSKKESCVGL

In the case of `O=C(NCc1ccccn1)c1ccnc(-c2cc(C(=O)NCc3ccccn3)ccn2)c1` [L1, N4,N4′‐bis(pyridin‐2‐ylmethyl)‐[2,2′‐bipyridine]‐4,4′‐dicarboxamide], the “Effect on lipase in the concentration ranges studied” value (pancreatic lipase; no IC50 given in Table 5) is reported as “did not show a linear effect”, the IC50 [1] is reported as 68.1 µM and the IC50 [2] is reported as 173 µM.

`O=C(NCC1CCCCN1)c1ccnc(-c2cc(C(=O)NCC3CCCCN3)ccn2)c1` (stereo not drawn) [L2, N4,N4′‐bis(piperidin‐2‐ylmethyl)‐[2,2′‐bipyridine]‐4,4′‐dicarboxamide] gave an IC50 (pancreatic lipase; at least five concentrations) of 24.1 µM, an IC50 [1] of 8.83 µM and an IC50 [2] of 10.2 µM.
